Test results: patent publication US20070203104A1, “Pharmaceutical Formulations” (priority 2006, published 2007)

Key:
[1] = symptoms associated with chronic nasal congestion, cited from earlier work
[2] = cited from earlier work
[3] = Solubility; format: physicochemical
[4] = cited from earlier work; remark: listed apart in the source
[5] = test system: rhinoviruses; conditions: cited from earlier work
[6] = test system: secretions of natural tear components; conditions: preclinical testing; cited from earlier work

SMILES: Oc1cccc(Nc2ncc(F)c(Nc3cccc(O)c3)n2)c1 [Example R112]
- improvement from baseline measurements ([1]; baseline prior to drug initiation): up to 38%
- absolute difference over placebo [1]: 9%
- relative improvement over placebo [1]: greater than 20%

SMILES: C[C@@H]1C[C@H]2[C@@H]3CCC4=CC(=O)C=C[C@]4(C)[C@@]3(Cl)[C@@H](O)C[C@]2(C)[C@@]1(OC(=O)c1ccco1)C(=O)CCl [Mometasone Furoate]
- bioavailability [2]: not readily bioavailable

SMILES: Cc1cc(CCCOc2c(C)cc(-c3noc(C(F)(F)F)n3)cc2C)on1 [Pleconaril, 1,2,4-oxadiazole3-[3,5-Dimethyl-4-[3-(3-methyl-5-isoxazolyl)propoxy]phenyl]-5-(trifluoremethyl)]
- solubility in condensed phases of hydrofluorocarbons ([3]; certain condensed phases of hydrofluorocarbons, e.g. HFA 227): can be dissolved
- solubility in certain glyceride oils ([3]; certain glyceride oils, e.g. Miglyol 812): can be dissolved
- solubility in aqueous solvents [4]: insoluble
- activity against rhinoviruses [5]: active

SMILES: O=c1ccn([C@@H]2O[C@H](COP(=O)(O)OP(=O)(O)OP(=O)(O)OP(=O)(O)OC[C@H]3O[C@@H](n4ccc(=O)[nH]c4=O)[C@H](O)[C@@H]3O)[C@@H](O)[C@H]2O)c(=O)[nH]1 [diquafosol]
- secretions of natural tear components [6]: increased
